The values that follow come from patent publication US5502242A, “Propiolate ester compound an acaricide containing the same as an active ingredient and an acaricidal method” (Sumitomo Chemical Company, Limited, priority 1993, dated 1996).

Molecules are shown by their SMILES.

What all share (format): in vivo
The test system of experiment [1] is Dermatophagoides pteronyssinus. As to the kind of experiment: Activity against Dermatophagoides pteronyssinus (treated filter paper, Biological Test Example 1). As to conditions: 24 h, 0.8 g/m^2 on filter paper, after one day. The source says:
(§1) A piece of filter paper (diameter: 4 cm) was impregnated uniformly with an acetone solution of the present compound so that the amount of the impregnated compound was 0.8 g/m^2 after being air-dried. Approximately twenty heads of mites (Tyrophagus putrescentiae, Dermatophagoides farinae Hughes and Dermatophagoides pteronyssinuis) were put on the surface of the treated filter paper. An adhesive substance was applied on the circumference of the filter paper for preventing escape. After one day, the mortality was examined. The results for Tyrophagus putrescentiae, Dermatophagoides farinae Hughes and Dermatophagoides pteronyssinus are shown in Table 3, Table 4, and Table 5, respectively.

In experiment [2] the test system is Dermatophagoides pteronyssinus. As to the kind of experiment: Residual activity against Dermatophagoides pteronyssinus (treated filter paper, Biological Test Example 2). As to conditions: 24 h, 0.8 g/m^2 on filter paper, mites put on seven days after treatment, mortality after one day. The source says:
A piece of filter paper (diameter: 4 cm) was impregnated uniformly with an acetone solution of the compound sample so that the amount of the compound was 0.8 g/m^2 after being air-dried. After seven days, approximately twenty heads of mites (Dermatophagoides pteronyssinus) were put on the surface of the treated filter paper. An adhesive substance was applied on the circumference of the filter paper for preventing escape. After one day, the mortality was examined.

The test system of experiment [3] is Dermatophagoides farinae Hughes. As to the kind of experiment: Activity against Dermatophagoides farinae Hughes (treated filter paper, Biological Test Example 1). The conditions noted are these: 24 h, 0.8 g/m^2 on filter paper, after one day.
Text: as §1

Experiment [4] has as its system Tyrophagus putrescentiae. Put plainly: Activity against Tyrophagus putrescentiae (treated filter paper, Biological Test Example 1). As to conditions: 24 h, 0.8 g/m^2 on filter paper, after one day.
Text: as §1

Experiment [5] concerns Tyrophagus putrescentiae. As to the kind of experiment: Fumigating activity against Tyrophagus putrescentiae (heated porous ceramic plate in peat grady chamber, Biological Test Example 3). The conditions noted are these: 24 h, 55 mg/m^3, ceramic plate heated at 175° C., after twenty-four hours. The source says: A piece of filter paper (diameter: 4 cm) was placed in an aluminum plate and an adhesive substance was applied on the circumference of the filter paper for preventing escape. Fifty to a hundred heads of mites (Tyrophagus putrescentiae) were put with little feed on the filter paper. Three sets of such filter paper with mites were placed on three corners (approximately 30 cm from the wall) in a floor of a peat grady chamber (1.8 m ×1.8 m ×1.8 m). A porous ceramic plate (4 cm ×4 cm ×1.2 cm) impregnated with an acetone solution of the present compound (concentration: 55 mg/m^3) was heated at 175° C. with an electric heater placed on the center of the floor of the chamber. After twenty-four hours, the mortality was examined.

One may read the mortality as the share of the test organisms that died. On to `C#CC(=O)OCCCCOc1c(C(C)C)cccc1C(C)C` [Compound 15], for which the mortality at 0.8 g/m2 came out at 100% in experiment [1], 95% in experiment [2], 100% in experiment [3] and 100% in experiment [4].
Regarding `C#CC(=O)OCCCCOc1ccc(C)cc1C` [Compound 12], the mortality at 0.8 g/m2 in experiment [1], in experiment [2], in experiment [3] and in experiment [4] was 100% throughout.
Turning to `C#CC(=O)OCCC(C)COc1ccccc1` (centres unmarked) [Compound 25], the mortality at 0.8 g/m2 in experiment [2], in experiment [3] and in experiment [4] was 100% each time.
With `C#CC(=O)OCCCCCOc1ccccc1` [Compound 8], the mortality at 0.8 g/m2 in experiment [1], in experiment [2], in experiment [3] and in experiment [4] was 100% in each case.
With `C#CC(=O)OCCCOc1c(C)cccc1C` [Compound 27], the mortality at 0.8 g/m2 in experiment [2] came to 100%; in experiment [3] it was 86%; in experiment [4], 100%.
With `C#CC(=O)OCCCCOc1ccc(C)cc1` [Compound 11, 4-(4-methylphenoxy)butyl propiolate], the mortality at 0.8 g/m2 in experiment [1], in experiment [2], in experiment [3] and in experiment [4] was 100% throughout. The same compound returned a mortality at 55 mg/m3 in experiment [5] of 79%.
In the case of `C#CC(=O)OCCCOc1ccccc1` [Compound 6], the mortality at 0.8 g/m2 in experiment [1], in experiment [2], in experiment [3] and in experiment [4] was 100% each time.
In the case of `C#CC(=O)OCCCCCCOc1ccccc1` [Compound 19], the mortality at 0.8 g/m2 in experiment [2], in experiment [3] and in experiment [4] was 100% throughout.
For `C#CC(=O)OCCCCCCCCCc1ccccc1` [Compound 5], the mortality at 0.8 g/m2 in experiment [1], in experiment [2], in experiment [3] and in experiment [4] was 100% throughout.
For the compound `C#CC(=O)OCCCCOc1ccccc1C` [Compound 10, 4-(2-methylphenoxy)butyl propiolate], the mortality at 0.8 g/m2 in experiment [1], in experiment [2], in experiment [3] and in experiment [4] was 100% each time.
`O=C(Oc1ccccc1)c1ccccc1O` [Phenyl salicylate, reference compound] showed a mortality at 55 mg/m3 in experiment [5] of 28%.
Take `C#CC(=O)OCCCCOc1ccccc1` [Compound 7]: the mortality at 0.8 g/m2 in experiment [1], in experiment [2], in experiment [3] and in experiment [4] was 100% each time.
In the case of `C#CC(=O)OCCOCc1ccc(C)cc1` [Compound 18], the mortality at 0.8 g/m2 in experiment [1], in experiment [2], in experiment [3] and in experiment [4] was 100% throughout.
As to `C#CC(=O)OCCCCOc1ccc(CC)cc1` [Compound 22], the mortality at 0.8 g/m2 was found to be 100% in experiment [2], 100% in experiment [3] and 96% in experiment [4].
As to `C#CC(=O)OCCCCCCCc1ccccc1` [Compound 3, 7-phenylheptyl propiolate], the mortality at 0.8 g/m2 in experiment [1], in experiment [2], in experiment [3] and in experiment [4] was 100% each time. The mortality at 55 mg/m3 in experiment [5] was determined as 96%.
On to `C#CC(=O)OCCCOc1ccc(CC)cc1` [Compound 20], for which the mortality at 0.8 g/m2 in experiment [2], in experiment [3] and in experiment [4] was 100% throughout.
On to `C#CC(=O)OCCOCc1ccc(CC)cc1` [Compound 28], for which the results for the mortality at 0.8 g/m2 in experiment [2], in experiment [3] and in experiment [4] were 97%, 100% and 100%, respectively.
In the case of `C#CC(=O)OCCCCCCCCc1ccccc1` [Compound 4], the mortality at 0.8 g/m2 in experiment [1], in experiment [2], in experiment [3] and in experiment [4] was 100% throughout.
Turning to `C#CC(=O)OCCCCOc1c(C)cccc1C` [Compound 13], the mortality at 0.8 g/m2 in experiment [1] came to 100%; in experiment [2], 92%; in experiment [3], 100%; in experiment [4], 100%.
For `C#CC(=O)OCCCCCOc1c(C)cccc1C` [Compound 14], the mortality at 0.8 g/m2 in experiment [1], in experiment [2], in experiment [3] and in experiment [4] was 100% throughout.
As for `C#CC(=O)OCC(C)OCc1ccccc1` (centres unmarked) [Compound 29], the mortality at 0.8 g/m2 amounted to 82% in experiment [2], 100% in experiment [3] and 100% in experiment [4].
As to `C#CC(=O)OCCCCCOc1ccc(C)cc1` [Compound 21], the mortality at 0.8 g/m2 in experiment [2], in experiment [3] and in experiment [4] was 100% throughout.
For the compound `C#CC(=O)OCCCCCc1ccccc1` [Compound 1, 5-phenylpentyl propiolate], the mortality at 0.8 g/m2 in experiment [1] stood at 100%; in experiment [2], 95%; in experiment [3], 100%; in experiment [4], 100%. This compound showed a mortality at 55 mg/m3 in experiment [5] of 76%.
Consider `C#CC(=O)OCC(C)COc1ccc(C)cc1` (centres unmarked) [Compound 24], for which the mortality at 0.8 g/m2 in experiment [2], in experiment [3] and in experiment [4] was 100% throughout.
Turning to `C#CC(=O)OCCCOCc1ccccc1` [Compound 17], the mortality at 0.8 g/m2 in experiment [1], in experiment [2], in experiment [3] and in experiment [4] was 100% throughout.
For `C#CC(=O)OCCCCCCc1ccccc1` [Compound 2, 6-phenylhexyl propiolate], the mortality at 0.8 g/m2 in experiment [1], in experiment [2], in experiment [3] and in experiment [4] was 100% each time. The mortality at 55 mg/m3 in experiment [5] was 73%.
As to `C#CC(=O)OCCOCc1ccccc1` [Compound 16, 2-benzyloxyethyl propiolate], the mortality at 0.8 g/m2 is 100% in experiment [1], 83% in experiment [2], 100% in experiment [3] and 100% in experiment [4].
Take `C#CC(=O)OCC(C)COc1ccccc1` (centres unmarked) [Compound 23]: the mortality at 0.8 g/m2 in experiment [2], in experiment [3] and in experiment [4] was 100% throughout.
Turning to `C#CC(=O)OCCCOc1ccc(C)cc1C` [Compound 9], the mortality at 0.8 g/m2 in experiment [1], in experiment [2], in experiment [3] and in experiment [4] was 100% in each case.
Turning to `C#CC(=O)OCCC(C)COc1ccc(C)cc1` (centres unmarked) [Compound 26], the figures for the mortality at 0.8 g/m2 in experiment [2], in experiment [3] and in experiment [4] were 94%, 96% and 100%, respectively.
